Assay results reported in patent US8758816B2, “Compositions comprising azelastine and methods of use thereof” (priority 2004, dated 2014).
Several values for one entry are separate records, joined by “and”; a condition that tells them apart may be missing. Equal entries are not always repeated. Structures can show the parent of a compound that is named as a salt.

Test system: patients with seasonal allergic rhinitis (SAR)
Assay: MP 428 study: adverse events, Safety Population
Type: in vivo, human
Description: A two-week, randomized, double-blind study, which evaluated the effects of the co-administration of ASTELIN® (azelastine hydrochloride (HCl)) and FLONASE® (fluticasone propionate) compared to either product alone in patients with seasonal allergic rhinitis (SAR) was conducted during the 2006 Texas mountain cedar season. After a 5-day placebo lead-in period, 151 patients with moderate-to-severe allergic rhinitis symptoms were randomized to either: (1) (49 total patients) ASTELIN® (azelastine hydrochloride (HCl)) plus placebo saline nasal spray 2 sprays per nostril, 15 minutes apart, twice daily (AM & PM); (2) (50 total patients) FLONASE® (fluticasone propionate) plus placebo saline nasal spray, 2 sprays per nostril, 15 minutes apart, once daily (AM) and two sessions of placebo saline nasal spray, 2 sprays per nostril, 15 minutes apart (PM); or (3) (52 total patients) the co-administration of ASTELIN® (azelastine hydrochloride (HCl)) 2 sprays per nostril plus FLONASE® (fluticasone propionate) 2 sprays per nostril (AM), 15 minutes apart, and ASTELIN® (azelastine hydrochloride (HCl)) 2 sprays per nostril plus placebo saline nasal spray, 15 minutes apart, (PM) for a 2-week double-blind treatment period.
The most common adverse events (AEs) were bitter taste (8.2% in ASTELIN® (azelastine hydrochloride (HCl)) group, 2.0% in FLONASE® (fluticasone propionate) group, 13.5% in co-administration group) and headache (4.1% in ASTELIN® (azelastine hydrochloride (HCl)) group, 4.0% in FLONASE® (fluticasone propionate) group, 5.8% in co-administration group). No other AE was reported by more than one patient in any treatment group. There were no discontinuations due to AEs.

[1] = Total (possibly or probably related), Safety Population

For `CN1CCCC(n2nc(Cc3ccc(Cl)cc3)c3ccccc3c2=O)CC1` (racemic) [Azelastine, (±)-1-(2H)-phthalazinone, 4-[(4-chlorophenyl)methyl]-2-(hexahydro-1-methyl-1H-azepin-4-yl)-, mono-hydrochloride], the “Treatment-Related Adverse Events: NERVOUS SYSTEM DISORDERS, Any Preferred Term” value [1] was 0 (0.0) No. of Patients (%), the “Treatment-Related Adverse Events: RESPIRATORY, THORACIC AND MEDIASTINAL DISORDERS, Any Preferred Term” value [1] was 0 (0.0) No. of Patients (%) and the “Treatment-Related Adverse Events: STOMACH DISCOMFORT” value [1] was 0 (0.0) No. of Patients (%). The “Treatment-Emergent AE: DRY MOUTH” value (max severity Mild) was 0 (0.0) No. of Patients (%), the “Treatment-Emergent AE: DYSGEUSIA” value (max severity Mild) was 1 (2.0) No. of Patients (%) and the “Treatment-Emergent AE: EAR AND LABYRINTH DISORDERS, Any Preferred Term” value (max severity Mild) was 0 (0.0) No. of Patients (%). The “Treatment-Emergent AE: EAR PAIN” value (max severity Mild) was 0 (0.0) No. of Patients (%), the “Treatment-Emergent AE: EPISTAXIS” value (max severity Mild) was 0 (0.0) No. of Patients (%) and the “Treatment-Emergent AE: GASTROINTESTINAL DISORDERS, Any Preferred Term” value (max severity Mild) was 1 (2.0) No. of Patients (%). For the same compound, the “Treatment-Emergent AE: HEADACHE” value (max severity Mild) was 1 (2.0) No. of Patients (%), the “Treatment-Emergent AE: MUSCULOSKELETAL AND CONNECTIVE TISSUE DISORDERS, Any Preferred Term” value (max severity Mild) was 1 (2.0) No. of Patients (%) and the “Treatment-Emergent AE: MYALGIA” value (max severity Mild) was 0 (0.0) No. of Patients (%). For the same compound, the “Treatment-Emergent AE: NASAL DISCOMFORT” value (max severity Mild) was 0 (0.0) No. of Patients (%), the “Treatment-Emergent AE: NECK PAIN” value (max severity Mild) was 1 (2.0) No. of Patients (%) and the “Treatment-Emergent AE: NERVOUS SYSTEM DISORDERS, Any Preferred Term” value (max severity Mild) was 1 (2.0) No. of Patients (%). The “Treatment-Emergent AE: PHARYNGOLARYNGEAL PAIN” value (max severity Mild) was 0 (0.0) No. of Patients (%), the “Treatment-Emergent AE: RESPIRATORY, THORACIC AND MEDIASTINAL DISORDERS, Any Preferred Term” value (from here on “Treatment-Emergent AE: RESPIRATORY”) (max severity Mild) was 0 (0.0) No. of Patients (%) and the “Treatment-Emergent AE: STOMACH DISCOMFORT” value (max severity Mild) was 0 (0.0) No. of Patients (%). The “Treatment-Emergent AE: Any Adverse Event” value (max severity Mild, mono-hydrochloride) was 3 (6.1) No. of Patients (%) and 3 (0.1) No. of Patients (%), the “Treatment-Emergent AE: Any Adverse Event” value (max severity Moderate) was 2 (4.1) No. of Patients (%) and the “Treatment-Emergent AE: DRY MOUTH” value (max severity Moderate) was 0 (0.0) No. of Patients (%). For the same compound, the “Treatment-Emergent AE: DYSGEUSIA” value (max severity Moderate) was 0 (0.0) No. of Patients (%), the “Treatment-Emergent AE: EAR AND LABYRINTH DISORDERS, Any Preferred Term” value (max severity Moderate) was 1 (2.0) No. of Patients (%) and the “Treatment-Emergent AE: EAR PAIN” value (max severity Moderate) was 1 (2.0) No. of Patients (%). For the same compound, the “Treatment-Emergent AE: EPISTAXIS” value (max severity Moderate) was 0 (0.0) No. of Patients (%), the “Treatment-Emergent AE: GASTROINTESTINAL DISORDERS, Any Preferred Term” value (max severity Moderate) was 0 (0.0) No. of Patients (%) and the “Treatment-Emergent AE: HEADACHE” value (max severity Moderate) was 1 (2.0) No. of Patients (%). For the same compound, the “Treatment-Emergent AE: MUSCULOSKELETAL AND CONNECTIVE TISSUE DISORDERS, Any Preferred Term” value (max severity Moderate) was 0 (0.0) No. of Patients (%), the “Treatment-Emergent AE: MYALGIA” value (max severity Moderate) was 0 (0.0) No. of Patients (%) and the “Treatment-Emergent AE: NASAL DISCOMFORT” value (max severity Moderate) was 0 (0.0) No. of Patients (%). The “Treatment-Emergent AE: NECK PAIN” value (max severity Moderate) was 0 (0.0) No. of Patients (%), the “Treatment-Emergent AE: NERVOUS SYSTEM DISORDERS, Any Preferred Term” value (max severity Moderate) was 1 (2.0) No. of Patients (%) and the “Treatment-Emergent AE: PHARYNGOLARYNGEAL PAIN” value (max severity Moderate) was 1 (2.0) No. of Patients (%). For the same compound, the “Treatment-Emergent AE: RESPIRATORY” value (max severity Moderate) was 1 (2.0) No. of Patients (%), the “Treatment-Emergent AE: STOMACH DISCOMFORT” value (max severity Moderate) was 0 (0.0) No. of Patients (%) and the “Treatment-Emergent AE: Any Adverse Event” value (max severity Severe) was 3 (6.1) No. of Patients (%). For the same compound, the “Treatment-Emergent AE: DRY MOUTH” value (max severity Severe) was 0 (0.0) No. of Patients (%), the “Treatment-Emergent AE: DYSGEUSIA” value (max severity Severe) was 3 (6.1) No. of Patients (%) and the “Treatment-Emergent AE: EAR AND LABYRINTH DISORDERS, Any Preferred Term” value (max severity Severe) was 0 (0.0) No. of Patients (%). The “Treatment-Emergent AE: EAR PAIN” value (max severity Severe) was 0 (0.0) No. of Patients (%), the “Treatment-Emergent AE: EPISTAXIS” value (max severity Severe) was 0 (0.0) No. of Patients (%) and the “Treatment-Emergent AE: GASTROINTESTINAL DISORDERS, Any Preferred Term” value (max severity Severe) was 3 (6.1) No. of Patients (%). For the same compound, the “Treatment-Emergent AE: HEADACHE” value (max severity Severe) was 0 (0.0) No. of Patients (%), the “Treatment-Emergent AE: MUSCULOSKELETAL AND CONNECTIVE TISSUE DISORDERS, Any Preferred Term” value (max severity Severe) was 0 (0.0) No. of Patients (%) and the “Treatment-Emergent AE: MYALGIA” value (max severity Severe) was 0 (0.0) No. of Patients (%). The “Treatment-Emergent AE: NASAL DISCOMFORT” value (max severity Severe) was 0 (0.0) No. of Patients (%), the “Treatment-Emergent AE: NECK PAIN” value (max severity Severe) was 0 (0.0) No. of Patients (%) and the “Treatment-Emergent AE: NERVOUS SYSTEM DISORDERS, Any Preferred Term” value (max severity Severe) was 0 (0.0) No. of Patients (%). The “Treatment-Emergent AE: PHARYNGOLARYNGEAL PAIN” value (max severity Severe) was 0 (0.0) No. of Patients (%), the “Treatment-Emergent AE: RESPIRATORY” value (max severity Severe) was 0 (0.0) No. of Patients (%) and the “Treatment-Emergent AE: STOMACH DISCOMFORT” value (max severity Severe) was 0 (0.0) No. of Patients (%). The “adverse event: bitter taste” value (share of treatment group) was 8.2% and the “adverse event: headache” value (share of treatment group) was 4.1%.
